Assay results: BigSolDB 2.1

N[C@H](Cc1c[nH]cn1)C(=O)O
solubility (mole fraction) (in 1,4-dioxane, 293.15 K): 0.0072 | solubility (mole fraction) (in 1,4-dioxane, 298.15 K): 0.00864 | solubility (mole fraction) (in 1,4-dioxane, 303.15 K): 0.0102 | solubility (mole fraction) (in 1,4-dioxane, 308.15 K): 0.0117 | solubility (mole fraction) (in 1,4-dioxane, 313.15 K): 0.0135 | solubility (mole fraction) (in 1,4-dioxane, 318.15 K): 0.0152 | solubility (mole fraction) (in 1,4-dioxane, 323.15 K): 0.0179 | solubility (mole fraction) (in 1,4-dioxane, 328.15 K): 0.0206 | solubility (mole fraction) (in 1,4-dioxane, 333.15 K): 0.0245 | solubility (mole fraction) (in DMF, 293.15 K): 0.154 | solubility (mole fraction) (in DMF, 298.15 K): 0.176 | solubility (mole fraction) (in DMF, 303.15 K): 0.201 | solubility (mole fraction) (in DMF, 308.15 K): 0.228 | solubility (mole fraction) (in DMF, 313.15 K): 0.258 | solubility (mole fraction) (in DMF, 318.15 K): 0.29 | solubility (mole fraction) (in DMF, 323.15 K): 0.326 | solubility (mole fraction) (in DMF, 328.15 K): 0.365 | solubility (mole fraction) (in DMF, 333.15 K): 0.417 | solubility (mole fraction) (in DMSO, 293.15 K): 0.0171 | solubility (mole fraction) (in DMSO, 298.15 K): 0.0199 | solubility (mole fraction) (in DMSO, 303.15 K): 0.0232 | solubility (mole fraction) (in DMSO, 308.15 K): 0.0267 | solubility (mole fraction) (in DMSO, 313.15 K): 0.0308 | solubility (mole fraction) (in DMSO, 318.15 K): 0.0353 | solubility (mole fraction) (in DMSO, 323.15 K): 0.0403 | solubility (mole fraction) (in DMSO, 328.15 K): 0.0459 | solubility (mole fraction) (in DMSO, 333.15 K): 0.0543 | solubility (mole fraction) (in NMP, 293.15 K): 0.0656 | solubility (mole fraction) (in NMP, 298.15 K): 0.0752 | solubility (mole fraction) (in NMP, 303.15 K): 0.0859 | solubility (mole fraction) (in NMP, 308.15 K): 0.0977 | solubility (mole fraction) (in NMP, 313.15 K): 0.111 | solubility (mole fraction) (in NMP, 318.15 K): 0.127 | solubility (mole fraction) (in NMP, 323.15 K): 0.14 | solubility (mole fraction) (in NMP, 328.15 K): 0.157 | solubility (mole fraction) (in NMP, 333.15 K): 0.178 | solubility (mole fraction) (in cyclohexane, 293.15 K): 0.000445 | solubility (mole fraction) (in cyclohexane, 298.15 K): 0.000565 | solubility (mole fraction) (in cyclohexane, 303.15 K): 0.000714 | solubility (mole fraction) (in cyclohexane, 308.15 K): 0.000897 | solubility (mole fraction) (in cyclohexane, 313.15 K): 0.00111 | solubility (mole fraction) (in cyclohexane, 318.15 K): 0.00138 | solubility (mole fraction) (in cyclohexane, 323.15 K): 0.00169 | solubility (mole fraction) (in cyclohexane, 328.15 K): 0.00216 | solubility (mole fraction) (in cyclohexane, 333.15 K): 0.00252 | solubility (mole fraction) (in ethanol, 293.15 K): 0.000253 | solubility (mole fraction) (in ethanol, 298.15 K): 0.000329 | solubility (mole fraction) (in ethanol, 303.15 K): 0.000433 | solubility (mole fraction) (in ethanol, 308.15 K): 0.000557 | solubility (mole fraction) (in ethanol, 313.15 K): 0.000724 | solubility (mole fraction) (in ethanol, 318.15 K): 0.000915 | solubility (mole fraction) (in ethanol, 323.15 K): 0.0012 | solubility (mole fraction) (in ethanol, 328.15 K): 0.00145 | solubility (mole fraction) (in ethanol, 333.15 K): 0.00181 | solubility (mole fraction) (in ethylene glycol, 293.15 K): 0.00215 | solubility (mole fraction) (in ethylene glycol, 298.15 K): 0.00263 | solubility (mole fraction) (in ethylene glycol, 303.15 K): 0.0032 | solubility (mole fraction) (in ethylene glycol, 308.15 K): 0.00385 | solubility (mole fraction) (in ethylene glycol, 313.15 K): 0.00459 | solubility (mole fraction) (in ethylene glycol, 318.15 K): 0.00559 | solubility (mole fraction) (in ethylene glycol, 323.15 K): 0.00654 | solubility (mole fraction) (in ethylene glycol, 328.15 K): 0.00774 | solubility (mole fraction) (in ethylene glycol, 333.15 K): 0.00944 | solubility (mole fraction) (in isobutanol, 293.15 K): 0.000546 | solubility (mole fraction) (in isobutanol, 298.15 K): 0.000681 | solubility (mole fraction) (in isobutanol, 303.15 K): 0.00085 | solubility (mole fraction) (in isobutanol, 308.15 K): 0.00105 | solubility (mole fraction) (in isobutanol, 313.15 K): 0.00129 | solubility (mole fraction) (in isobutanol, 318.15 K): 0.00156 | solubility (mole fraction) (in isobutanol, 323.15 K): 0.00201 | solubility (mole fraction) (in isobutanol, 328.15 K): 0.0024 | solubility (mole fraction) (in isobutanol, 333.15 K): 0.00286 | solubility (mole fraction) (in isopropanol, 293.15 K): 0.000369 | solubility (mole fraction) (in isopropanol, 298.15 K): 0.00047 | solubility (mole fraction) (in isopropanol, 303.15 K): 0.000598 | solubility (mole fraction) (in isopropanol, 308.15 K): 0.000759 | solubility (mole fraction) (in isopropanol, 313.15 K): 0.000945 | solubility (mole fraction) (in isopropanol, 318.15 K): 0.00117 | solubility (mole fraction) (in isopropanol, 323.15 K): 0.00146 | solubility (mole fraction) (in isopropanol, 328.15 K): 0.00177 | solubility (mole fraction) (in isopropanol, 333.15 K): 0.00228 | solubility (mole fraction) (in methanol, 293.15 K): 0.00019 | solubility (mole fraction) (in methanol, 298.15 K): 0.000252 | solubility (mole fraction) (in methanol, 303.15 K): 0.00033 | solubility (mole fraction) (in methanol, 308.15 K): 0.000431 | solubility (mole fraction) (in methanol, 313.15 K): 0.000562 | solubility (mole fraction) (in methanol, 318.15 K): 0.000712 | solubility (mole fraction) (in methanol, 323.15 K): 0.000904 | solubility (mole fraction) (in methanol, 328.15 K): 0.00119 | solubility (mole fraction) (in methanol, 333.15 K): 0.00156 | solubility (mole fraction) (in n-butanol, 293.15 K): 0.0007 | solubility (mole fraction) (in n-butanol, 298.15 K): 0.000865 | solubility (mole fraction) (in n-butanol, 303.15 K): 0.00105 | solubility (mole fraction) (in n-butanol, 308.15 K): 0.00128 | solubility (mole fraction) (in n-butanol, 313.15 K): 0.00155 | solubility (mole fraction) (in n-butanol, 318.15 K): 0.00187 | solubility (mole fraction) (in n-butanol, 323.15 K): 0.00224 | solubility (mole fraction) (in n-butanol, 328.15 K): 0.00263 | solubility (mole fraction) (in n-butanol, 333.15 K): 0.0033 | solubility (mole fraction) (in n-propanol, 293.15 K): 0.000484 | solubility (mole fraction) (in n-propanol, 298.15 K): 0.00061 | solubility (mole fraction) (in n-propanol, 303.15 K): 0.00076 | solubility (mole fraction) (in n-propanol, 308.15 K): 0.000941 | solubility (mole fraction) (in n-propanol, 313.15 K): 0.00115 | solubility (mole fraction) (in n-propanol, 318.15 K): 0.00142 | solubility (mole fraction) (in n-propanol, 323.15 K): 0.00172 | solubility (mole fraction) (in n-propanol, 328.15 K): 0.00208 | solubility (mole fraction) (in n-propanol, 333.15 K): 0.00263 | solubility (mole fraction) (in water, 293.15 K): 0.00458 | solubility (mole fraction) (in water, 298.15 K): 0.00506 | solubility (mole fraction) (in water, 303.15 K): 0.00556 | solubility (mole fraction) (in water, 308.15 K): 0.00619 | solubility (mole fraction) (in water, 313.15 K): 0.00686 | solubility (mole fraction) (in water, 318.15 K): 0.00765 | solubility (mole fraction) (in water, 323.15 K): 0.00878 | solubility (mole fraction) (in water, 328.15 K): 0.00971 | solubility (mole fraction) (in water, 333.15 K): 0.0118
